# Marks after values point to notes of the source that are not given here.
# What was measured:
# [1] = test system: amyloid fibrils of glycated BSA (BSA/Fru + Glu); test: Inhibition of amyloid fibril formation, ThT assay (BSA/Fru + Glu); type: biochemical, bovine
# Method: The formation of AGEs was measured after incubation of a system containing protein and carbohydrates. This assay was based on previous methods. The reaction system was obtained by adding 300 µL of plant extract or of the pure compound (at different concentrations), 150 µL D-fructose (200 mM), 150 µL of D-glucose (200 mM), and 300 µL of bovine serum albumin (BSA, 3 mg/mL) to a test tube. All these solutions, except plant extract, were dissolved in 0.05 M potassium phosphate buffer (pH 7.4) containing NaCl (100 mM) and NaN3 (0.02% w/v). The plant extract was prepared in a buffer containing 60% ethanol. The mixture was incubated in the dark at 37 °C for 7 days with constant stirring. After the incubation, 200 µL of the reaction mixture was transferred to a 96-well black plate, and fluorescent AGEs were measured using a microplate reader (Infinite® 200 PRO, TECAN, Männedorf, Switzerland) at λex = 360 and λem = 440 nm. […] The fluorescence readings for the experimental treatment were blanked against extract blanks to eliminate the baseline fluorescence of the sample. The percentage of the AGE inhibition and IC50 was calculated as described in Section 3.3.1.
# The fibrillar state of modified BSA was determined with ThT as previously described. ThT is a probe that binds directly to amyloid fibrils to give a strong fluorescent signal and thus can be used to quantify β-amyloid due to protein glycation. […]
# [2] = MGO capture using derivatization with OPD (HPLC); details: PESE 2 mg/mL, PIC 2 mM, AMG 2 mM; MGO 2 mM; 37 °C, 1 h
# Method: MGO scavenging was tested using a described procedure, with slight modifications. The quantification of MGO was based on derivatization with OPD, leading to the formation of the product 2-methylquinoxyline (2-MQ). MGO and OPD were dissolved in phosphate buffer (50 mM, pH 7.4) to a concentration of 2 mM and 4 mM, respectively. […] The reaction system was composed of 125 μL of the MGO solution, 125 μL of phosphate buffer (negative control), or PESE incubated at 37 °C for 1 h. After 250 μL of the OPD solution was added, the tubes were kept for 30 min for the derivatization reaction between MGO and OPD to complete. Then, the chromatographic analysis was performed. All solutions were previously filtered (microfilter pore diameter 0.45 μm). […] The linear gradient for elution was: starting at 5% of solvent B, 0–3 min, 5 to 50% B; 3–16 min, isocratic in 50% B; 16–17 min, 50–90% B; 17–19 min, isocratic in 90% B and 19–19.5 min, 90–5% B. The derivatization product, 2-methylquinoxyline (2-MQ), was detected at 315 nm, with a retention time of 10 min. The percentage of trapping efficiency of MGO was calculated using the following equation: % trapping MGO = [100 − (peak area after adding sample/peak area without adding sample) × 100].
# BEAS-2B cells = test: MTS cell viability assay; type: cell-based, human; details: 100 µg/mL (409 µM); 24 h
# Method: (§1) BEAS-2B, MCF10-A, and AML-12, cells were purchased from the American Tissue Type Culture Collection (ATCC; CRL-9609, CRL-10317, and CRL-2254) and cultured with a specific medium. BEAS-2B cells were cultured with LHC-9 media at 37 °C in an incubator with 5% CO2. […] Cells were grown to around 70% confluence on the culture flask, and passages (<10) were employed for all experimental conditions. MTS Cell Titer 96™ aqueous cell proliferation assay was used to determine cell viability. […] For that, 1 × 10^4 cells were plated on a 96-well plate with a growth medium of 100 μL/well. […] Fifteen microliters of MTS reagent (with PMS) was then added to each well and incubated for 3 h in the dark. Absorbance was recorded at 490 nm using a microplate reader (Infinite® 200 PRO, TECAN, Männedorf, Switzerland). For each experiment, cells with DMSO media served as control, and cells with only culture medium and MTS reagent served as the blank.
# MTS cell viability assay = type: cell-based; details: human, MCF-10A cells, up to 100 µg/mL
# Method: as §1
# alpha-glucosidase = target: alpha-glucosidase; set-up: method as in PMID 31986026; details: cited from earlier work
# db/db mice = test system: db/db mice; set-up: method as in PMID 25832644; details: PIC supplementation; cited from earlier work
compound,measurement,setting,value
"Oc1cc(O)cc(/C=C/c2ccc(O)c(O)c2)c1 [PIC, 3,3′,4′,5-trans-tetrahydroxystilbene]",Inhibition of the formation of β-amyloid fibrils in vitro,"[1]; abstract, glycation system not specified",up to 100%
same,"Inhibition of Amyloid Fibrils (%), Fructose + Glucose","[1]; highest obtained, PESE 200, PIC 200, AMG 100 µg/mL, BSA/Fru + Glu",100 ± 5.3 ^a %
same,MGO trapping,[2],65.1%
same,Reduction of cell viability of BEAS-2B cells,BEAS-2B cells,approximately 50%
same,viability at 24 h,MTS cell viability assay,> 80%
same,IC50,alpha-glucosidase,4.3 ± 0.07 µM
same,"Fasting blood glucose, db/db mice",db/db mice,reduced fasting blood glucose
